The experiment addresses T1, TRPC1:C5 channels (Homo sapiens, UniProt P48995+Q9UL62).
T1 construct: expressed in transfected cells; host or cells: HEK 293 (transient, Lipofectamine 3000)
The experiment can be described thus: Excised outside-out patch-clamp, HEK 293 cells transiently co-expressing hTRPC1 and hTRPC5. The class given is cell-based. On the procedure: HEK T‐REx™ cell line was transfected with TRPC5‐SYFP2 or TRPC4‐SYFP2 using FuGENE® HD transfection reagent. After 48 hr, cells were put under antibiotic selection using 400 μg·ml^−1 zeocin and 10 μg·ml^−1 blasticidin S (Invivogen, San Diego, California, USA). Medium changes were carried out regularly to remove dead cells. HEK T‐REx cells expressing tetracycline‐inducible human TRPC5, TRPC4–C1, and TRPC5–C1 were created as described previously (Akbulut et al., 2015; Ludlow et al., 2017; Rubaiy, Ludlow, Henrot, et al., 2017). […]
For electrophysiology experiments, cells were plated at a low density of 20–30% onto round or square glass coverslips (13 mm diameter or 5 × 5 mm), and TRPC expression in HEK T‐REx was induced with 1 μg·ml^−1 tetracycline 24 hr before experimentation. […] The patch‐clamp currents were recorded using Axopatch 200B or HEKA EPC‐800 amplifiers, digitized by a Digidata 1440 or PCI6229 (National Instruments Japan, Tokyo, Japan) and recorded to a computer using pCLAMP10 (Molecular Devices) or WinWCPV4.5 (developed by Dr John Dempster, University of Strathclyde, UK). […]
For orientation: The patch-clamp technique gives a direct electrical read-out from membranes.

T1 sequence (Q9UL62 whole entry): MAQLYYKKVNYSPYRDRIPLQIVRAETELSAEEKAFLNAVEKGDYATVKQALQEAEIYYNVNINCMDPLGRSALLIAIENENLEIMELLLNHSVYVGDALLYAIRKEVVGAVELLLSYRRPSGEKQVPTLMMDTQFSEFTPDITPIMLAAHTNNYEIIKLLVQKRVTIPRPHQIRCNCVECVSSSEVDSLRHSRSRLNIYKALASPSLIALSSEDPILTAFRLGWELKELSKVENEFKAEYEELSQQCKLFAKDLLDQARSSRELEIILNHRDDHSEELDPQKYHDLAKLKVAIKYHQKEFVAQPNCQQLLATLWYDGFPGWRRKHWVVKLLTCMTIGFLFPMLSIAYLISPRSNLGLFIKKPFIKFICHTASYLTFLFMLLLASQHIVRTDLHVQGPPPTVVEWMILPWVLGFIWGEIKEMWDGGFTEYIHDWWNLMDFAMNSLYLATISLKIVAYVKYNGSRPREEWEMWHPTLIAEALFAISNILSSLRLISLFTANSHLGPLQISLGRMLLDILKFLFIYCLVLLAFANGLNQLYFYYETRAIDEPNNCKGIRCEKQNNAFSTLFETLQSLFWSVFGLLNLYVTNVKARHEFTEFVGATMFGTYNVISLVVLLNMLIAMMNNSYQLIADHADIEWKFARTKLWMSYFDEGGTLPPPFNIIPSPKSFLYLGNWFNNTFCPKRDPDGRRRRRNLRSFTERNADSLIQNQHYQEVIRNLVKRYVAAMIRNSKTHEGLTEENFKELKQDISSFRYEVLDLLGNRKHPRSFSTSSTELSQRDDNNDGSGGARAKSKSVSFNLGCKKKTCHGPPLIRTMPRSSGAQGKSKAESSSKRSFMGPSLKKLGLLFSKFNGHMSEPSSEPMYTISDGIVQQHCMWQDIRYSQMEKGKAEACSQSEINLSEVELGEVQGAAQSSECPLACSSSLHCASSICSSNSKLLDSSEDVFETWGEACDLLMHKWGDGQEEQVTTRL
T1 sequence (P48995 whole entry): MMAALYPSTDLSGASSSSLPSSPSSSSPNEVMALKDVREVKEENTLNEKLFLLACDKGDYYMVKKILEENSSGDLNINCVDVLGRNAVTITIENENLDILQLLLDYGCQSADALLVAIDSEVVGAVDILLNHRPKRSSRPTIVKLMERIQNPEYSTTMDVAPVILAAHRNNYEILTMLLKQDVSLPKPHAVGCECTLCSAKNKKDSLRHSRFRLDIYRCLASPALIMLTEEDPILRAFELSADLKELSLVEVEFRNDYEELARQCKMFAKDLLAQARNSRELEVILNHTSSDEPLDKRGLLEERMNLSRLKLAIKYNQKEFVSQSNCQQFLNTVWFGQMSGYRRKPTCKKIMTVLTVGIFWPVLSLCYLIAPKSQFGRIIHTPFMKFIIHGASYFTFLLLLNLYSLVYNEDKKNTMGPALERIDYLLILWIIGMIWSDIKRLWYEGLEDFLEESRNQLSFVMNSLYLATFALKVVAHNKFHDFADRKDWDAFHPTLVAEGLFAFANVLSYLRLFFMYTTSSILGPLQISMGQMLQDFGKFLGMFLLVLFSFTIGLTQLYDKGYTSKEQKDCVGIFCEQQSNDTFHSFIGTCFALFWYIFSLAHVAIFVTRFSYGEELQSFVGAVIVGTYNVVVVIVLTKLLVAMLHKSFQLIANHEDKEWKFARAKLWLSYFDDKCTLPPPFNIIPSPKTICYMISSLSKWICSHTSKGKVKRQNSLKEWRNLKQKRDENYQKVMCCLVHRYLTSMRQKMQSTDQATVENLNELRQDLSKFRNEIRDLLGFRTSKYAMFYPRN

For the compound `Cn1c(=O)n(CCCO)c(=O)c2c1nc(Oc1ccc(Cl)c(OC(F)(F)F)c1)n2Cc1ccc(Cl)cc1` [AM237], the “Inhibition of inward and outward currents induced by EA” value (30 nM EA, at 3 to 100 nM AM237) is recorded as “full inhibition”. The “Activation of TRPC1:C5 currents” value (outside-out patch) was “did not activate”.

The values above are taken from publication PMC6811774, “Potent, selective, and subunit‐dependent activation of TRPC5 channels by a xanthine derivative” (British Journal of Pharmacology, 2019).
